Series [1] is described as follows: Cell viability assay (CellTiter-Glo), HEK293. The series is classed as cell-based. The conditions noted are these: human, HEK293 cells, read-out: HEK293 (CC50 code). As for the experimental part: (§1) Culture medium for HEK293—DMEM (PanEco, Cat #C420) was used. RPMI-1640 (PanEco, Cat #C363) was used for the rest of the cell lines.
(§2) Compounds were prepared as 200× stocks with serial dilution in 100% DMSO with a final concentration of 1×.
(§3) […] were dispersed in 40 μL aliquots in 384-well plates at a concentration of 2000 cells per well for HEK293 and at a concentration of 4000 cells per well for the rest of the cell lines using a robotic station Biomek (Beckman). Before adding compounds, the cells were incubated at 37° C. (HEK293 were incubated for a day before adding compounds).
(§4) A dilution plate was prepared by pouring 78 μL of the appropriate culture medium using a robotic station Biomek (Beckman). Sequentially, using a robotic station, 2 μL of substances were taken and added to 78 μL of culture medium (dilution of compounds 40×). 10 μL aliquots were taken and added to the plates of the cells (dilution of compounds 5×). The plates were incubated for 3 days at a temperature 37° C. After 3 days, 10 μL of CellTiter-Glo (Promega) was added to the cells and the luminescence was measured.
In general terms: ATP-based viability assays read luminescence as a measure of living cells.

A further series deals with RS4-11 cells. In words: Cell viability assay (CellTiter-Glo), RS4-11. The series is classed as cell-based. The conditions noted are these: Homo sapiens, 72 h, 3 days, read-out: RS4-11 (CC50 code). As for the experimental part:
as §1, §2, §3, §4

The target of the next series is BCL-2 (Homo sapiens (Human), UniProt P10415). The experiment in a line: BCL-2 TR-FRET Assay (primary PPI inhibition). The class given is binding. The conditions noted are these: 60 min incubation; read-out: BCL2 (IC50 code, BCL-2 TR-FRET). Summed up: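 Mixture of 3 ng BCL-2, anti-His Tb donor, dye-labeled acceptor and BCL-2 peptide ligand, incubated 60 min with test compound. TR-FRET read at 340 nm excitation, 620/665 nm emission, 60 µs delay, 500 µs integration.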
BCL-2, sequence (P10415 whole entry): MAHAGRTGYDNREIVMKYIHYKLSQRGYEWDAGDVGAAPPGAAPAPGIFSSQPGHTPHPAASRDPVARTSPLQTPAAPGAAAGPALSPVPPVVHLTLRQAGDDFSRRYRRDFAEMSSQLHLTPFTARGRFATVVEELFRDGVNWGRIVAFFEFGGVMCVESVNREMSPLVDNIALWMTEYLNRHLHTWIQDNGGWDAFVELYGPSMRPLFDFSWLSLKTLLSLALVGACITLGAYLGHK
Background: TR-FRET usually uses a lanthanide donor and a delayed reading to cut background.

The next series addresses BCL-XL (Homo sapiens (Human), UniProt Q07817). In words: BCL-XL TR-FRET Assay (primary PPI inhibition). The class given is binding. The conditions noted are these: 60 min incubation; read-out: BCLxL (IC50 code, BCL-XL TR-FRET). Put shortly: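 TR-FRET displacement of a dye-labelled BCL-XL peptide ligand from His-tagged BCL-XL (10.5 ng) detected with a Tb-labelled anti-His donor. Incubation ran 60 min with test compound. Readout used 340 nm excitation and 620/665 nm emission with a 60 µs delay.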

Series [2] deals with caspase-3 and -7 activities in RS4-11 cells. In words: Caspase-3/7 activation (Caspase-Glo 3/7) in RS4-11 cells. The class given is cell-based. The conditions noted are these: Homo sapiens, 3.5 h incubation, read-out: Cas-3/7 (EC50 code). How it is done: The Caspase-Glo 3/7 Assay is homogeneous, luminescent assay that measures caspase-3 and -7 activities. The assay provides a luminogenic caspase-3/7 substrate, which contains the tetrapeptide sequence DEVD, in a reagent optimized for caspase activity.
Incubate RS4-11 cells with varying concentrations of test compounds for 3.5 h in a humidified incubator at 37° C. and 5% CO2 and 30 min at r.t. Add 15 μl Caspase-Glo reagent to each well and incubate the plate for 30 min at r.t. Read on ClarioStar Plus instrument.
Promega Caspase-Glo (Promega, #8212); Frozen RS4-11 cells; 384-well white plate (Corning, #3570).
ClarioStar Plus; Biomek FX for liquid handling (Beckman Coulter).

Another series relates to MOLT-4 cells. In words: Cell viability assay (CellTiter-Glo), MOLT-4. The conditions noted are these: Homo sapiens, 72 h, 3 days, read-out: MOLT-4 (CC50 code). The class given is cell-based. As for the experimental part:
as §1, §2, §3, §4

Another series addresses MCL-1 (Homo sapiens (Human), UniProt Q07820). The experiment in a line: MCL-1 TR-FRET Assay (primary PPI inhibition). The series is classed as binding. The conditions noted are these: 60 min incubation; read-out: MCL1 IC50. As for the experimental part:
MCL-1 TR-FRET Assay (BPS Bioscience, #79506)
The following assay concentrations and times were used: 10 ng MCL-1, 5 μl of 1:200 anti-His Tb-labeled donor, 5 μl of 1:200 Dye-labeled acceptor, 5 μl of 1:10 MCL-1 Peptide Ligand, and 2 μl of test compound, with 60 min incubation time. The results of the assay were read using a Clariostar (BMG Labtech) plate reader with the following parameters: TR FRET, 340ex/620 and 665em; 60 μsec Delay; and 500 μsec integration.

BCL-XL, sequence (Q07817 whole entry): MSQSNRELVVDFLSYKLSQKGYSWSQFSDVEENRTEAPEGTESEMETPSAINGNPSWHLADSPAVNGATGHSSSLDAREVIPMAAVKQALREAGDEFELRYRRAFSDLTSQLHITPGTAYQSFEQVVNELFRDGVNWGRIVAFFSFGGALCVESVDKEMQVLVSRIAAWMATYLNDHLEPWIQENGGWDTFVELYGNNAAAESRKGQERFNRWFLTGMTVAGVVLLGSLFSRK
MCL-1, sequence (Q07820 whole entry): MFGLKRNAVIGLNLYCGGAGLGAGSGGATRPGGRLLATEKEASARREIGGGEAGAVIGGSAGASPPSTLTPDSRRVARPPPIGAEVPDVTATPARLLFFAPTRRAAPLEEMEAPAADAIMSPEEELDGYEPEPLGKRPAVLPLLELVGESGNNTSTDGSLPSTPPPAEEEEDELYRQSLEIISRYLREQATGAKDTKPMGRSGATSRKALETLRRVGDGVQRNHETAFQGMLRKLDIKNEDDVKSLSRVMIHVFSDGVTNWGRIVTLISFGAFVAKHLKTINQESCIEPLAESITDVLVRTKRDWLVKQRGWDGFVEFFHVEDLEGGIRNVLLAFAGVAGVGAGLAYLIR

As a reminder, the CC50 is the concentration giving 50% cytotoxicity. A word on the IC50: it is the concentration at which inhibition is half-maximal. Turning to `COCCNC(=O)c1ccc(CN(C(=O)c2cc(-c3cc4c(cc3C(=O)N3Cc5ccccc5C[C@H]3CN3CCOCC3)OCO4)n3c2CCCC3)c2ccc(O)cc2)cc1` [Compound 1, N-(4-hydroxyphenyl)-N-{4-[(2-methoxyethyl)carbamoyl]benzyl}-3-(6-{[(3S)-3-(morpholin-4-ylmethyl)-3,4-dihydroisoquinolin-2(1H)-yl]carbonyl}-1,3-benzodioxol-5-yl)-5,6,7,8-tetrahydroindolizine-1-carboxamide], the CC50 at 3 days in series [1] was not above 10000 nM. Also, the CC50 in the series with RS4-11 cells was not above 100 nM; in the series with MOLT-4 cells, 2000 to 10000 nM. Moreover, the IC50 was not above 5 nM at BCL-2, not above 2000 nM on BCL-XL and more than 100000 nM at MCL-1. Also, the EC50 in series [2] was not above 100 nM.
On to `COCCNC(=O)c1cccc(CN(C(=O)c2cc(-c3cc4c(cc3C(=O)N3Cc5ccccc5C[C@H]3CN3CCOCC3)OCO4)n3c2CCCC3)c2ccc(O)cc2)c1` [Compound 2, N-(4-hydroxyphenyl)-N-{3-[(2-methoxyethyl)carbamoyl]benzyl}-3-(6-{[(3S)-3-(morpholin-4-ylmethyl)-3,4-dihydroisoquinolin-2(1H)-yl]carbonyl}-1,3-benzodioxol-5-yl)-5,6,7,8-tetrahydroindolizine-1-carboxamide], for which, in series [1], the CC50 at 3 days is not above 10000 nM. Further, the CC50 in the series on RS4-11 cells was 100 to 200 nM; in the series on MOLT-4 cells it was more than 10000 nM. The values for the IC50 on BCL-2 and at MCL-1 were not above 5 nM and more than 100000 nM, respectively. Further, in series [2], the EC50 was more than 250 nM.
Consider `CN(C)CCNC(=O)c1cccc(CN(C(=O)c2cc(-c3cc4c(cc3C(=O)N3Cc5ccccc5C[C@H]3CN3CCOCC3)OCO4)n3c2CCCC3)c2ccc(O)cc2)c1` [Compound 6, N-(3-{[2-(dimethylamino)ethyl]carbamoyl}benzyl)-N-(4-hydroxyphenyl)-3-(6-{[(3S)-3-(morpholin-4-ylmethyl)-3,4-dihydroisoquinolin-2(1H)-yl]carbonyl}-1,3-benzodioxol-5-yl)-5,6,7,8-tetrahydroindolizine-1-carboxamide], for which the CC50 at 3 days in series [1] is 10000 to 25000 nM. The CC50 with RS4-11 cells is more than 200 nM; in the series with MOLT-4 cells, more than 10000 nM. Also, the figures for the IC50 on BCL-2 and at MCL-1 were not above 5 nM and more than 100000 nM, respectively. Besides, the EC50 in series [2] is more than 250 nM.
In the case of `CN1CCN(C(=O)c2cccc(CN(C(=O)c3cc(-c4cc5c(cc4C(=O)N4Cc6ccccc6C[C@H]4CN4CCOCC4)OCO5)n4c3CCCC4)c3ccc(O)cc3)c2)CC1` [Compound 10, N-(4-hydroxyphenyl)-N-{3-[(4-methylpiperazin-1-yl)carbonyl]benzyl}-3-(6-{[(3S)-3-(morpholin-4-ylmethyl)-3,4-dihydroisoquinolin-2(1H)-yl]carbonyl}-1,3-benzodioxol-5-yl)-5,6,7,8-tetrahydroindolizine-1-carboxamide], the CC50 at 3 days in series [1] was 10000 to 25000 nM. Further, the CC50 was more than 200 nM in the series with RS4-11 cells and more than 10000 nM in the series with MOLT-4 cells. The IC50 was 5 to 10 nM on BCL-2 and more than 100000 nM on MCL-1. In addition, the EC50 in series [2] is more than 250 nM.
For the compound `COc1ccccc1CN(C(=O)c1cc(-c2cc3c(cc2C(=O)N2Cc4ccccc4C[C@H]2CN2CCOCC2)OCO3)n2c1CCCC2)c1ccc(O)cc1` [Compound 31, N-(4-hydroxyphenyl)-N-(2-methoxybenzyl)-3-(6-{[(3S)-3-(morpholin-4-ylmethyl)-3,4-dihydroisoquinolin-2(1H)-yl]carbonyl}-1,3-benzodioxol-5-yl)-5,6,7,8-tetrahydroindolizine-1-carboxamide], the CC50 at 3 days in series [1] is more than 25000 nM. For the same compound, the half-maximal cytotoxic concentration (CC50) was not above 100 nM with RS4-11 cells and not above 2000 nM in the series on MOLT-4 cells. The values for the IC50 on BCL-2 and at BCL-XL were not above 5 nM and not above 2000 nM, respectively. Moreover, the EC50 in series [2] was not above 100 nM.
On to `O=C(c1cc(-c2cc3c(cc2C(=O)N2Cc4ccccc4C[C@H]2CN2CCOCC2)OCO3)n2c1CCCC2)N(Cc1ccccc1Cl)c1ccc(O)cc1` [Compound 33, N-(2-chlorobenzyl)-N-(4-hydroxyphenyl)-3-(6-{[(3S)-3-(morpholin-4-ylmethyl)-3,4-dihydroisoquinolin-2(1H)-yl]carbonyl}-1,3-benzodioxol-5-yl)-5,6,7,8-tetrahydroindolizine-1-carboxamide], for which the CC50 at 3 days in series [1] is 10000 to 25000 nM. Moreover, the CC50 with RS4-11 cells was not above 100 nM; with MOLT-4 cells it was not above 2000 nM. The IC50 on BCL-2 was not above 5 nM; at BCL-XL it was not above 2000 nM. Moreover, the EC50 in series [2] is not above 100 nM.
Regarding `Cc1cccc(Cl)c1CN(C(=O)c1cc(-c2cc3c(cc2C(=O)N2Cc4ccccc4C[C@H]2CN2CCOCC2)OCO3)n2c1CCCC2)c1ccc(O)cc1` [Compound 34, N-(2-chloro-6-methylbenzyl)-N-(4-hydroxyphenyl)-3-(6-{[(3S)-3-(morpholin-4-ylmethyl)-3,4-dihydroisoquinolin-2(1H)-yl]carbonyl}-1,3-benzodioxol-5-yl)-5,6,7,8-tetrahydroindolizine-1-carboxamide], in series [1], the CC50 at 3 days is more than 25000 nM. Also, the CC50 was more than 200 nM in the series on RS4-11 cells and not above 2000 nM with MOLT-4 cells. Moreover, the IC50 on BCL-2 was more than 50 nM; at BCL-XL, more than 4000 nM. Also, in series [2], the EC50 was more than 250 nM.
Turning to `O=C(c1cc(-c2cc3c(cc2C(=O)N2Cc4ccccc4C[C@H]2CN2CCOCC2)OCO3)n2c1CCCC2)N(Cc1c(Cl)ccc(F)c1F)c1ccc(O)cc1` [Compound 35, N-(6-chloro-2,3-difluorobenzyl)-N-(4-hydroxyphenyl)-3-(6-{[(3S)-3-(morpholin-4-ylmethyl)-3,4-dihydroisoquinolin-2(1H)-yl]carbonyl}-1,3-benzodioxol-5-yl)-5,6,7,8-tetrahydroindolizine-1-carboxamide], in series [1], the CC50 at 3 days was more than 25000 nM. The figures for the CC50 in the series on RS4-11 cells and in the series on MOLT-4 cells were more than 200 nM and not above 2000 nM, respectively. In addition, the IC50 on BCL-2 is 10 to 50 nM; at BCL-XL, more than 4000 nM. Besides, the EC50 in series [2] is more than 250 nM.
For the compound `Cn1cnnc1CN(C(=O)c1cc(-c2cc3c(cc2C(=O)N2Cc4ccccc4C[C@H]2CN2CCOCC2)OCO3)n2c1CCCC2)c1ccc(O)cc1` [Compound 48, N-(4-Hydroxyphenyl)-N-[(4-methyl-1,2,4-triazol-3-yl)methyl]-3-[6-[(3S)-3-(morpholinomethyl)-3,4-dihydro-1H-isoquinoline-2-carbonyl]-1,3-benzodioxol-5-yl]-5,6,7,8-tetrahydroindolizine-1-carboxamide], in series [1], the CC50 at 3 days was 10000 to 25000 nM. Also, the CC50 was not above 100 nM in the series with RS4-11 cells and 2000 to 10000 nM in the series on MOLT-4 cells. The IC50 at BCL-2 was not above 5 nM; at BCL-XL, not above 2000 nM. The EC50 in series [2] is not above 100 nM.
`Cc1c(CN(C(=O)c2cc(-c3cc4c(cc3C(=O)N3Cc5ccccc5C[C@H]3CN3CCOCC3)OCO4)n3c2CCCC3)c2ccc(O)cc2)cccc1[N+](=O)[O-]` [Compound 50, N-(4-Hydroxyphenyl)-N-[(2-methyl-3-nitro-phenyl)methyl]-3-[6-[(3S)-3-(morpholinomethyl)-3,4-dihydro-1H-isoquinoline-2-carbonyl]-1,3-benzodioxol-5-yl]-5,6,7,8-tetrahydroindolizine-1-carboxamide]: the CC50 at 3 days in series [1] is more than 25000 nM. Besides, the values for the 50% cytotoxic concentration (CC50) in the series on RS4-11 cells and in the series with MOLT-4 cells were more than 200 nM and 2000 to 10000 nM, respectively. Further, the IC50 was more than 50 nM at BCL-2 and more than 4000 nM at BCL-XL. In series [2], the EC50 was more than 250 nM.

The record behind these values is patent US11697650B2, “Compounds having tetrahydroindolizine-1-carboxamide as BCL-2 inhibitors” (Eil Therapeutics, Inc., priority 2021, dated 2023).
